Test results from ChEMBL document CHEMBL4414648, “Novel Benzohydroxamate-Based Potent and Selective Histone Deacetylase 6 (HDAC6) Inhibitors Bearing a Pentaheterocyclic Scaffold: Design, Synthesis, and Biological Evaluation” (J Med Chem, 2019).

Assays:
[1] = Toxicity in C57BL/6 mouse assessed as induction of piloerection up to 50 mg/kg, ip administered for 5 days/week for two cycles and measured daily starting from day 1; format: organism-based; settings: in vivo, 120 h
[2] = Toxicity in C57BL/6 mouse assessed as effect on spasms up to 50 mg/kg, ip administered for 5 days/week for two cycles and measured daily starting from day 1; format: organism-based; settings: in vivo, 120 h
[3] = Toxicity in C57BL/6 mouse assessed as inactivity/hyperactivity up to 50 mg/kg, ip administered for 5 days/week for two cycles and measured daily starting from day 1; format: organism-based; settings: in vivo, 120 h
[4] = Total clearance in CD-1 mouse at […], iv measured within 6 hrs by LC-MS/MS analysis; format: ADME, organism-based; settings: in vivo
[5] = Toxicity in C57BL/6 mouse assessed as effect on WBC level at 10 mg/kg, ip administered for 5 days/week for two cycles and measured 60 mins post last dose by beckman coulter counting method relative to control; format: organism-based; settings: in vivo, 1 h
[6] = target: T1, Protein deacetylase HDAC6 (Mus musculus) (UniProt Q9Z2V5); assay: Inhibition of HDAC6 in C57BL/6 mouse regulatory T cells assessed as increase in Treg-mediated suppression of anti-CD3 induced CD4+ cell division at 1 uM after 72 hrs in presence mitomycin-treated APC by CFSE dye based flow cytometric assay relative to control
T1 sequence (whole entry): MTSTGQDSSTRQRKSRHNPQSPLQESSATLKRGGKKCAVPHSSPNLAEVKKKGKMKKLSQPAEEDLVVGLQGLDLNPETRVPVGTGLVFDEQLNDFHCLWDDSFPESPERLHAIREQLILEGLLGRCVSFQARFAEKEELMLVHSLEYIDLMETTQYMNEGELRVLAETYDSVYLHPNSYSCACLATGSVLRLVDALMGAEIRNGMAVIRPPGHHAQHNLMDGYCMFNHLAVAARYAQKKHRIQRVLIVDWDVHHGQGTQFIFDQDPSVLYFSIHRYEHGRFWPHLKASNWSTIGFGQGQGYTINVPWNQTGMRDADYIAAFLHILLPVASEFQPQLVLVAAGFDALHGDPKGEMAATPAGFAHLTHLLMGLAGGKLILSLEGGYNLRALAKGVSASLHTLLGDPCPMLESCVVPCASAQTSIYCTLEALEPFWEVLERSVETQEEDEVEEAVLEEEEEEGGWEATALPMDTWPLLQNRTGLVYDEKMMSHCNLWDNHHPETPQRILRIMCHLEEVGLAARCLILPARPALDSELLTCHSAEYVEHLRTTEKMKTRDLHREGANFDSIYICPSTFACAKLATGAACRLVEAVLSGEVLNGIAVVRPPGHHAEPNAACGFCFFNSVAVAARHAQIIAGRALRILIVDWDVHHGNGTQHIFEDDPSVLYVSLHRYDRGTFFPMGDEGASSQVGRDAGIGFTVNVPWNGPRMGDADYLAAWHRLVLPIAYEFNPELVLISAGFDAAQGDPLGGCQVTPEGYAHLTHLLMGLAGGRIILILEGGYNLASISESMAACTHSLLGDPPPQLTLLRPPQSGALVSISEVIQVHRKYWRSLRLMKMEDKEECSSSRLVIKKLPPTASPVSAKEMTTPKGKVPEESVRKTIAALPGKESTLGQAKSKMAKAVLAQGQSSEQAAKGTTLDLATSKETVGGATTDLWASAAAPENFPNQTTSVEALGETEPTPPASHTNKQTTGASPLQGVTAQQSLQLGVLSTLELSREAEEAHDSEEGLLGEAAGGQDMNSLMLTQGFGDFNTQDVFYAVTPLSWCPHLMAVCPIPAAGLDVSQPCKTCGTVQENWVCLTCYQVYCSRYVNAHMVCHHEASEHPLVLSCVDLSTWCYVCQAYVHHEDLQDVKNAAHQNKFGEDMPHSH

[7] = Apparent volume of distribution at steady state in CD-1 mouse at […], iv measured within 6 hrs by LC-MS/MS analysis; format: ADME, organism-based; settings: in vivo, read-out: Vdss(app)
[8] = Selectivity ratio of IC50 for N-terminal His-tagged human HDAC11 expressed in baculovirus expression system to IC50 for human N-terminal GST-tagged HDAC6 expressed in baculovirus infected sf9 insect cells
[9] = Toxicity in C57BL/6 mouse assessed as effect on platelet level at 50 mg/kg, ip administered for 5 days/week for two cycles and measured 60 mins post last dose by cell counter method relative to control; format: organism-based; settings: in vivo, 1 h
[10] = Toxicity in C57BL/6 mouse assessed as effect on WBC level at 50 mg/kg, ip administered for 5 days/week for two cycles and measured 60 mins post last dose by beckman coulter counting method relative to control; format: organism-based; settings: in vivo, 1 h
[11] = Stability in rat plasma assessed as parent compound remaining at 100 uM after 4 hrs by LC-MS/MS analysis; format: ADME, cell-free; settings: read-out: Stability
[12] = Selectivity ratio of IC50 for human HDAC4 expressed in baculovirus infected sf9 insect cells to IC50 for human N-terminal GST-tagged HDAC6 expressed in baculovirus infected sf9 insect cells
[13] = test system: Mus musculus; assay: Ratio of in vivo inhibition of HDAC6 in C57BL/6 mouse assessed as fold increase in acetylated tubulin level in spleen cytosolic protein extract to in vivo inhibition of HDAC in C57BL/6 mouse assessed as fold increase in acetylated-histone H3 level in spleen nuclear protein extracts

With `Cn1c(Sc2ccc(C(=O)NO)cc2)nnc1-c1cccs1` the Activity [1] was “Non-Toxic”, the Activity [2] was “Non-Toxic” and the Activity [3] was “Non-Toxic”. For the same compound, the clearance at 6 h [4] was 10.9 L/h/kg, the Activity [5] was 1% and the fold change (FC) [6] was 3.4. For the same compound, the Vd at 6 h [7] was 5.4 L/kg, the “Ratio IC50” value [8] was 119 and the Activity [9] was -8%. The Activity [10] was -30%, the remaining at 4 h, 100 µM [11] was 86% and the “Ratio IC50” value [12] was 304. It also gave a Ratio [13] of 3.5.
